# Values quoted from earlier work as cited in publication PMC12736226, “Acid Versus Amide—Facts and Fallacies: A Case Study in Glycomimetic Ligand Design” (Molecules, 2025).
# Biological target: T1, E-selectin (Homo sapiens, UniProt P16581)
# T1 construct: gene SELE; soluble extracellular lectin-domain fragment with Ca2+
# T1 sequence (P16581 22-301): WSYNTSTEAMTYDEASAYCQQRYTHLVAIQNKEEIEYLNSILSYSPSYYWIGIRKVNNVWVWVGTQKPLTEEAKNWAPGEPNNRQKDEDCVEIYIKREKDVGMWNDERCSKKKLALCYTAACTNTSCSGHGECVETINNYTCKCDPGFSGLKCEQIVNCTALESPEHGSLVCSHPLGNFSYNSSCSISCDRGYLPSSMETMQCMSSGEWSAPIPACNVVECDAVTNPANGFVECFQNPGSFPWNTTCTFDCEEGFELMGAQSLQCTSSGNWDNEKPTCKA
# Assay: microscale thermophoresis (MST)
# Format: binding
# Conditions: affinity data also reported in Ref. 25; read-out: Affinity KD MST [μM] (95% CI)
# Excerpt: microscale thermophoresis (MST) on E-selectin
row,Kd,SMILES
1,166 µM,C[C@@H]1O[C@@H](O[C@@H]2CCCC[C@H]2O[C@@H]2O[C@H](CO)[C@H](O)[C@H](O[C@@H](CC3CCCCC3)C(N)=O)[C@H]2O)[C@@H](O)[C@H](O)[C@@H]1O [3a]
2,112 µM,CNC(=O)[C@H](CC1CCCCC1)O[C@H]1[C@@H](O)[C@@H](CO)O[C@@H](O[C@@H]2CCCC[C@H]2O[C@@H]2O[C@@H](C)[C@@H](O)[C@@H](O)[C@@H]2O)[C@@H]1O [3b]
3,109 µM,CCNC(=O)[C@H](CC1CCCCC1)O[C@H]1[C@@H](O)[C@@H](CO)O[C@@H](O[C@@H]2CCCC[C@H]2O[C@@H]2O[C@@H](C)[C@@H](O)[C@@H](O)[C@@H]2O)[C@@H]1O [3c]
4,34.6 µM,C[C@@H]1O[C@@H](O[C@@H]2CCCC[C@H]2O[C@@H]2O[C@H](CO)[C@H](O)[C@H](O[C@@H](CC3CCCCC3)C(=O)N(C)C)[C@H]2O)[C@@H](O)[C@H](O)[C@@H]1O [3d]
5,21.4 µM,C[C@@H]1O[C@@H](O[C@@H]2CCCC[C@H]2O[C@@H]2O[C@H](CO)[C@H](O)[C@H](O[C@@H](CC3CCCCC3)C(=O)N3CCCC3)[C@H]2O)[C@@H](O)[C@H](O)[C@@H]1O [3e]
6,17 µM,C[C@@H]1O[C@@H](O[C@@H]2CCCC[C@H]2O[C@@H]2O[C@H](CO)[C@H](O)[C@H](O[C@@H](CC3CCCCC3)C(=O)N3CCC3)[C@H]2O)[C@@H](O)[C@H](O)[C@@H]1O [3f]
7,16.2 µM,C[C@@H]1O[C@@H](O[C@@H]2CCCC[C@H]2O[C@@H]2O[C@H](CO)[C@H](O)[C@H](O[C@@H](CC3CCCCC3)C(=O)N3CC(c4ccccc4)C3)[C@H]2O)[C@@H](O)[C@H](O)[C@@H]1O [3h]
8,38.2 µM,C[C@@H]1O[C@@H](O[C@@H]2CCCC[C@H]2O[C@@H]2O[C@H](CO)[C@H](O)[C@H](O[C@@H](CC3CCCCC3)C(=O)N3CC(C)(C)C3)[C@H]2O)[C@@H](O)[C@H](O)[C@@H]1O [3i]
9,873 µM,"CC(=O)N[C@H]1[C@H]([C@H](O)[C@H](O)CO)O[C@@](O[C@H]2[C@@H](O)[C@@H](CO)O[C@@H](O[C@H]3[C@H](O[C@@H]4O[C@@H](C)[C@@H](O)[C@@H](O)[C@@H]4O)[C@@H](NC(C)=O)C(O)O[C@@H]3CO)[C@@H]2O)(C(=O)O)C[C@@H]1O (stereo partly drawn) [compound 1, Sialyl Lewis^x]"
